Read-outs that look alike come from different tables or passages of the source. Values belong to the compound of their own block, whether it stands above or below them.
What was measured:
human SirT1 = target: T1, human SirT1 (Homo sapiens, UniProt Q96EB6); assay: SirT1 Fluor de Lys enzymatic deacetylase assay; format: biochemical
T1 construct: purchased Biomol SE-239
T1 sequence (Q96EB6 1-747): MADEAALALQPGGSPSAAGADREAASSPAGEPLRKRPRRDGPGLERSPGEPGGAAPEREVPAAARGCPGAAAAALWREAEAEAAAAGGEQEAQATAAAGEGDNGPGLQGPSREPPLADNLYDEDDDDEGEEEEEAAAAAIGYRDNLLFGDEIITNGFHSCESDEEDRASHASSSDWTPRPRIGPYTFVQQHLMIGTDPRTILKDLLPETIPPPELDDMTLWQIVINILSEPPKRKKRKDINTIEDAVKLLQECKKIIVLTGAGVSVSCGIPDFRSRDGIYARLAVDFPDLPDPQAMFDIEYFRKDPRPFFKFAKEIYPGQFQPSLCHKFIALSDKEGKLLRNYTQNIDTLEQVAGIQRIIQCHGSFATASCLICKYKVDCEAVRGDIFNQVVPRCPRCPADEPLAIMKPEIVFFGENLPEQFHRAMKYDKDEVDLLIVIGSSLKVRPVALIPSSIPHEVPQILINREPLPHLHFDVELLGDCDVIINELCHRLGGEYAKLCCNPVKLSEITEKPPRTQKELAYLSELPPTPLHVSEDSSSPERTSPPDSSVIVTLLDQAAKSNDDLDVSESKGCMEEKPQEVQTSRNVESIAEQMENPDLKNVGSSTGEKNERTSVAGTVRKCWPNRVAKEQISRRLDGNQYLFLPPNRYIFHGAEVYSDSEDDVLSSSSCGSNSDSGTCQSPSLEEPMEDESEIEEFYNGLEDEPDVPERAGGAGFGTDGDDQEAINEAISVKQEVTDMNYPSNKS
Source text: An exemplary assay method includes a 1536 well format of the SirT1 enzymatic assay that is based on the commercial “Fluor-de-Lys” assay principle by Biomol, which is fluorogenic (www.biomol.com/store/Product_Data_PDFs/ak500.pdf). In this assay, deacetylation of the e-amino function of a lysyl residue is coupled to a fluorogenic “development step that is dependent on the unblocked e-amino functionality and generates fluorescent aminomethylcoumarin. Fluorescence can be read on a commercial macroscopic reader.
Step Description • 1 Prepare amount of 2× Substrates necessary for the number of wells to be assayed.

SirT2 = target: T2, SirT2 (Homo sapiens, UniProt Q8IXJ6); assay: SirT2 activity (Tables 1 and 2); format: biochemical
T2 sequence (Q8IXJ6 1-389): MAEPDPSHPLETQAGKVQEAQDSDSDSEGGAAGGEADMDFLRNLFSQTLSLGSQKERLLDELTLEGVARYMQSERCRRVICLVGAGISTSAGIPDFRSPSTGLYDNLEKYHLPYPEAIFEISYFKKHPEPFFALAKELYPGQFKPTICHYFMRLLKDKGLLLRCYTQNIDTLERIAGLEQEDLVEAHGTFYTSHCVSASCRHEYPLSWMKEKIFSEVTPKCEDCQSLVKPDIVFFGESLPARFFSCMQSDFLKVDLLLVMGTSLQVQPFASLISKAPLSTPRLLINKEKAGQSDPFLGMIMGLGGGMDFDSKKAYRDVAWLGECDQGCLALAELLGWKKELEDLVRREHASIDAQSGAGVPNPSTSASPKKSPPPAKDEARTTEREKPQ

GFP-hSIRT2 isoform 1 = target: T3, GFP-hSIRT2 isoform 1 (Homo sapiens, UniProt Q8IXJ6); assay: Acetylated tubulin staining in HeLa cells transfected with GFP-hSIRT2 isoform 1; format: cell-based; conditions: 50 μM compound with 1 μM TSA, added 36 hours post transfection, stained next morning; versus DMSO
T3 construct: expressed in transfected cells; host or cells: HeLa
T3 sequence (Q8IXJ6 1-389): T2 sequence (Q8IXJ6 1-389)
Protocol: HeLa cells were transfected with GFP-hSIRT2 isoform 1. At 36 hours post transfection 1 μM of TSA and either DMSO or 50 μM of Compound 8 was added. The next morning cells were fixed, permeabilized, and stained for acetylated tubulin.

[1] = Table 3, p53-382 Fluor de Lys substrate, read-out: SirT1 p53-382-FdL IC50
[2] = Table 1, Activity of Triazoles (conc. in μM)
[3] = Table 1, Activity of Triazoles (conc. in μM), read-out: SirT1
[4] = Table 2, Activity of representative compounds (conc. in μM)
[5] = Table 2, Activity of representative compounds (conc. in μM), read-out: SirT1

- IC50 (human SirT1; [1]): > 10 µM
SMILES: NC(=O)c1c(NC(=O)C2CC2)sc2c1CCCCC2 [Compound 34, 2-(Cyclopropanecarbonyl-amino)-5,6,7,8-tetrahydro-4H-cyclohepta[b]thiophene-3-carboxylic acid amide]

- IC50 (human SirT1; [1]): > 10 µM
SMILES: Cc1sc(NC(=O)C2CCCO2)c(C(N)=O)c1C (stereo not shown) [Compound 15, Tetrahydro-furan-2-carboxylic acid (3-carbamoyl-4,5-dimethyl-thiophen-2-yl)-amide]

- IC50 (SirT2; [2]): > 10 µM
- IC50 (human SirT1; [3]): 1 to 10 µM
SMILES: Cc1ccc(-n2c(Cc3ccccc3)nnc2SCC(N)=O)cc1 [Compound 3, 2-(5-Benzyl-4-p-tolyl-4H-[1,2,4]triazol-3-ylsulfanyl)-acetamide]

- IC50 (SirT2; [2]): 1 to 10 µM
- IC50 (human SirT1; [3]): > 10 µM
SMILES: Cc1ccc(-n2c(SCC(N)=O)nnc2-c2ccccc2Br)cc1 [Compound 4, 2-[5-(2-Bromo-phenyl)-4-p-tolyl-4H-[1,2,4]triazol-3-ylsulfanyl]-acetamide]

- IC50 (SirT2; [4]): > 10 µM
- IC50 (human SirT1; [5]): > 10 µM
SMILES: Nn1c(CCC(=O)O)nc2sc3c(c2c1=O)CCCC3 [Compound 7, 3-(3-Amino-4-oxo-3,4,5,6,7,8-hexahydro-benzo[4,5]thieno[2,3-d]pyrimidin-2-yl)-propionic acid]

- IC50 (SirT2; [4]): > 10 µM
- IC50 (human SirT1; [5]): 1 to 10 µM
SMILES: NC(=O)Cn1c(=O)oc2cc(Br)ccc21 [Compound 6, 2-(6-Bromo-2-oxo-benzooxazol-3-yl)-acetamide]

- IC50 (SirT2; [2]): > 10 µM
- IC50 (human SirT1; [3]): 1 to 10 µM
SMILES: COc1ccc(-n2c(COc3cccc4ccccc34)nnc2SCC(N)=O)cc1 [Compound 2, 2-[4-(4-Methoxy-phenyl)-5-(naphthalen-1-yloxymethyl)-4H-[1,2,4]triazol-3-ylsulfanyl]-acetamide]

- IC50 (human SirT1; [1]): > 10 µM
SMILES: Cc1sc(NC(=O)Cn2nc([N+](=O)[O-])cc2C)c(C(N)=O)c1C [Compound 9, 4,5-Dimethyl-2-[2-(5-methyl-3-nitro-pyrazol-1-yl)-acetylamino]-thiophene-3-carboxylic acid amide]

- IC50 (human SirT1; [1]): > 10 µM
SMILES: CCC1CCc2c(sc(N)c2C(N)=O)C1 (stereo not shown) [Compound 38, 2-Amino-6-ethyl-4,5,6,7-tetrahydro-benzo[b]thiophene-3-carboxylic acid amide]

- IC50 (SirT2; [2]): > 10 µM
- IC50 (human SirT1; [3]): 1 to 10 µM
SMILES: NC(=O)CSc1nnc(Cc2c[nH]c3ccccc23)n1Cc1ccccc1 [Compound 1, 2-[4-Benzyl-5-(1H-indol-3-ylmethyl)-4H-[1,2,4]triazol-3-ylsulfanyl]-acetamide]

- IC50 (human SirT1; [1]): > 10 µM
SMILES: Cc1sc(NC(=O)C2CC2)c(C(N)=O)c1C [Compound 26, 2-(Cyclopropanecarbonyl-amino)-4,5-dimethyl-thiophene-3-carboxylic acid amide]

- IC50 (human SirT1; [1]): > 10 µM
SMILES: CC(C)CC(=O)Nc1sc2c(c1C(N)=O)CCCCCC2 [Compound 33, 2-(3-Methyl-butyrylamino)-4,5,6,7,8,9-hexahydro-cycloocta[b]thiophene-3-carboxylic acid amide]

- IC50 (human SirT1; [1]): > 10 µM
SMILES: Cc1sc(NC(=O)c2ccncc2)c(C(N)=O)c1C [Compound 29, N-(3-Carbamoyl-4,5-dimethyl-thiophen-2-yl)-isonicotinamide]

- IC50 (human SirT1; [1]): > 10 µM
SMILES: Cc1sc(NC(=O)c2cnccn2)c(C(N)=O)c1C [Compound 30, Pyrazine-2-carboxylic acid (3-carbamoyl-4,5-dimethyl-thiophen-2-yl)-amide]

- IC50 (human SirT1; [1]): 1 to 10 µM
SMILES: CCC(=O)Nc1sc2c(c1C(N)=O)CCC(C)C2 (stereo not shown) [Compound 35, 6-Methyl-2-propionylamino-4,5,6,7-tetrahydro-benzo[b]thiophene-3-carboxylic acid amide]

- IC50 (human SirT1; [1]): < 1 µM
SMILES: CC1CCc2c(sc(NC(=O)C3CCCC3)c2C(N)=O)C1 (stereo not shown) [Compound 32, 2-(Cyclopentanecarbonyl-amino)-6-methyl-4,5,6,7-tetrahydro-benzo[b]thiophene-3-carboxylic acid amide]

- IC50 (SirT2; [4]): > 10 µM
- IC50 (human SirT1; [5]): 1 to 10 µM
SMILES: O=C(O)CSc1nc2sc3c(c2c(=O)n1C1CCCCC1)CCC3 [Compound 5, (5-Cyclohexyl-4-oxo-2,3,4,5-tetrahydro-1H-8-thia-5,7-diaza-cyclopenta[a]inden-6-ylsulfanyl)-acetic acid]

- IC50 (human SirT1; [1]): > 10 µM
SMILES: Cc1sc(NC(=O)c2ccc(Br)o2)c(C(N)=O)c1C [Compound 11, 5-Bromo-furan-2-carboxylic acid (3-carbamoyl-4,5-dimethyl-thiophen-2-yl)-amide]

- IC50 (human SirT1; [1]): > 10 µM
SMILES: CC1CCc2c(sc(N)c2C(N)=O)C1 (stereo not shown) [Compound 36, 2-Amino-6-methyl-4,5,6,7-tetrahydro-benzo[b]thiophene-3-carboxylic acid amide]

- IC50 (human SirT1; [1]): > 10 µM
SMILES: CSc1c(CC(=O)NCCO)n(C)c2ccc(C)cc12 [Compound 48, 2-(1,5-Dimethyl-3-methylsulfanyl-1H-indol-2-yl)-N-(2-hydroxy-ethyl)-acetamide]

- acetylation of tubulin in cells expressing SIRT2 (GFP-hSIRT2 isoform 1): more highly acetylated
SMILES: NC(=O)COC(=O)c1sc2ccccc2c1Cl [Compound 8, 3-Chloro-benzo[b]thiophene-2-carboxylic acid carbamoylmethyl ester]

— patent US20050250794A1, “Methods of treating a disorder” (priority 2003, published 2005)
